Reference: US20250345443A1, “PHARMACEUTICAL COMPOUND AND USE THEREOF” (DUALITY BIOLOGICS (SUZHOU) CO., LTD., priority 2022, published 2025)
pEC50: −log10 of the molar value.

Key:
Assay type in all cases: cell-based
hTLR8 = molecular target: T1, hTLR8 (Homo sapiens, UniProt Q9NR97); assay: Stimulation of spleen cells from hTLR8-C57BL/6 mice with TLR8 agonists (ELISA)
T1 construct: tissue Biocytogen; host or cells: spleen cells from hTLR8-C57BL/6 (hTLR8 humanized, knock-in) mice
T1 sequence (Q9NR97 27-1041): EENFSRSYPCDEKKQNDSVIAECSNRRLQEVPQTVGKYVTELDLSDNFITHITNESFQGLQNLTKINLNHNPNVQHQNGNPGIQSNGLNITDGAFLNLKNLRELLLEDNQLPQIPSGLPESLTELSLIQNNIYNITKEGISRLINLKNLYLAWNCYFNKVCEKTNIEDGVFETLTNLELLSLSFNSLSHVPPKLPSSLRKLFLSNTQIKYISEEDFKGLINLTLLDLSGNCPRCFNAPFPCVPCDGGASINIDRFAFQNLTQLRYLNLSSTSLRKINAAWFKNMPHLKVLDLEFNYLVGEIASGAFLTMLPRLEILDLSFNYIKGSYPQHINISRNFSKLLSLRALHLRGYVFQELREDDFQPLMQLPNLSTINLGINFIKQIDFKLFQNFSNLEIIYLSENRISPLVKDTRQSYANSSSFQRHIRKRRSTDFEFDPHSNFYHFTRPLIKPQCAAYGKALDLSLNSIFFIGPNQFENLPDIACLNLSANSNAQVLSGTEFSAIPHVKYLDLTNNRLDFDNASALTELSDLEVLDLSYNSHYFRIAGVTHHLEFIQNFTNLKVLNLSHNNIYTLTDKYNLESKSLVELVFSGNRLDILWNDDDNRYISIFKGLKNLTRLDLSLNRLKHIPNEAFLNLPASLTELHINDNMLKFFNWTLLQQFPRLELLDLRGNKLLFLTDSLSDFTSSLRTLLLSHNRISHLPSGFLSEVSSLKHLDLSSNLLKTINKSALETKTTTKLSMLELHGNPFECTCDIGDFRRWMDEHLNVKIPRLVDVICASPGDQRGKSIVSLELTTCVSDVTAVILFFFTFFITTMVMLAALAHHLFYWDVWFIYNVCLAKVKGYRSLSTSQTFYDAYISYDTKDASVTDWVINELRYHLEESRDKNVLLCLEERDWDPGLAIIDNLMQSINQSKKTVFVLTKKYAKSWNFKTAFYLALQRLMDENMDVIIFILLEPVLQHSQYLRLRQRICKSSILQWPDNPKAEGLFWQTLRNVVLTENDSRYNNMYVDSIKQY

human PBMCs [1] = assay: Induction activity of compounds on TNF-α in human PBMCs (ELISA); conditions: 24 h
Description: (§1) PBMC cells were treated with the compounds. The compounds of the present application were diluted with DMSO, for example, to about 15 mM. The reference compounds were diluted to 5 mg/mL and then sequentially added to cell plates. The compounds were serially 3-fold diluted to give a total of 8 concentrations and added to cell plates, with two replicate wells set for each concentration. DMSO was added to the negative control wells at 0.4 μL/well, and the reference compounds at 5 mg/mL were added to the positive control wells at 0.4 μL/well. The final concentration of DMSO was 0.2%. Frozen human PBMCs in cryopreservation tubes were quickly thawed in a 37° C. water bath and transferred into 50-mL centrifuge tubes. Pre-warmed RPMI1640 medium was gradually added, and the mixture was well mixed and centrifuged for 15 min before the supernatant was discarded. The cells were resuspended in a culture medium and then counted. The cell suspension was adjusted to 2.5×10^6 cells/mL with the culture medium. Diluted cells were added at 200 μL/500,000 cells/well in the 96-well plates containing the compounds.
The plate was then washed 3 times.
(§2) Compound activity data analysis: The OD450 values were converted to TNF-α and IFN-α contents by GraphPad Prism software analysis and fitted to give dose-response curves of the compounds. The EC50 values of the compounds were calculated.

human PBMCs [2] = assay: Induction activity of compounds on IFN-α in human PBMCs (ELISA); conditions: 24 h
Description: as §1, §2

[3] = molecular target: T2, hTLR7 (human Toll-like receptor 7) (Homo sapiens, UniProt Q9NYK1); assay: Agonistic activity of compounds on hTLR7 (HEK-Blue hTLR7 cells, QUANTI-Blue OD650); conditions: 24 h
T2 construct: host or cells: HEK-Blue hTLR7 cells
T2 sequence (Q9NYK1 27-1049): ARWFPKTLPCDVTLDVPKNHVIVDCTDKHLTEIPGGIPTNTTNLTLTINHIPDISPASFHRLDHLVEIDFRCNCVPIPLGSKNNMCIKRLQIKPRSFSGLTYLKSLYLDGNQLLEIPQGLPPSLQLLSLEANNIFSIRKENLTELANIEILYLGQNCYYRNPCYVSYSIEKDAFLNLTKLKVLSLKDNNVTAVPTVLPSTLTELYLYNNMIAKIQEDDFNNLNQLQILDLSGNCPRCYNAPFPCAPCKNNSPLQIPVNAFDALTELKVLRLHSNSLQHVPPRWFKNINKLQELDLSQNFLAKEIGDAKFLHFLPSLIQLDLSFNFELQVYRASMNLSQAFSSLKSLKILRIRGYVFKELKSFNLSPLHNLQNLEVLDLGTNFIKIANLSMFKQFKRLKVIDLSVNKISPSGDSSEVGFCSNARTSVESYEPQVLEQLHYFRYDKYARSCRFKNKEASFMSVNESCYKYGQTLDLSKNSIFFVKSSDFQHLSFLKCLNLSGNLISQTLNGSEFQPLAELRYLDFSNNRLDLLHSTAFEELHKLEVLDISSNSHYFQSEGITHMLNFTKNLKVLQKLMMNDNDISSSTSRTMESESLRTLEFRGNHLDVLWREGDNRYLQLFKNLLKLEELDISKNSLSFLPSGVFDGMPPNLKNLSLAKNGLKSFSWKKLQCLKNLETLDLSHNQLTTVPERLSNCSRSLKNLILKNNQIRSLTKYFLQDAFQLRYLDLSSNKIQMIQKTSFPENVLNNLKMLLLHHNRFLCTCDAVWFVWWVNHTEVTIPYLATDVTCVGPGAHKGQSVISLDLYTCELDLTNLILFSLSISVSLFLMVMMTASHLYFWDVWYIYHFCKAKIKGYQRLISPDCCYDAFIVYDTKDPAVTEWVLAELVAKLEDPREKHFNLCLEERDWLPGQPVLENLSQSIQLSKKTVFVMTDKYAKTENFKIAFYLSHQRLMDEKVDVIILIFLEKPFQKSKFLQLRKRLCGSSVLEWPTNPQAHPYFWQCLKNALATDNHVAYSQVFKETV
Description: (§3) In this example, the agonistic activity of the compounds of the present application on hTLR7 (human Toll-like receptor 7) and hTLR8 (human Toll-like receptor 8) was assessed; the induction activity of the compounds on human PBMCs for TNF-α and IFN-α production was assessed in human PBMCs (human peripheral blood mononuclear cells).
(§4) All compounds were formulated in DMSO into 30 mM concentrated stock solutions and preserved at 4° C. […] HEK-Blue hTLR7 and HEK-Blue hTLR8 cell lines were purchased from InvivoGen, and human PBMCs were purchased from Shanghai Saily Biotechnology Co., Ltd. (Cat. No. XFB—HP100B).
(§5) Compound dilution: The compounds of the present application were diluted with DMSO, for example, to about 15 mM. The reference compounds were diluted and then sequentially added to cell plates. […] DMSO was added to the negative control wells at 0.2 μL/well, and the reference compounds were added to the positive control wells. The final concentration of DMSO was 0.2%.
(§6) Cell plating: When an 80% confluence of HEK Blue hTLR7&8 cells in the culture flask was observed under a microscope, the culture medium was discarded, 10 mL of detection medium was added, and the cells were pipetted to form a single-cell suspension. The cells were counted using a cell counter and diluted to 500,000 cells/mL. The cells were plated at 100 μL/50,000 cells/well in the 96-well plates containing the compounds. The compounds and cells were co-incubated in an incubator at 37° C. with 5% CO2 for 24 h.
(§7) Compound activity detection: 20 μL of cell supernatant was taken from each well and added to an experimental plate containing QUANTI-Blue™ reagent at 180 μL/well. The plate was incubated at 37° C. for 1 h, and then the absorbance at 650 nm (OD650) was measured on the multimode microplate reader Flexstation III.
(§8) The EC50 values of the compounds were calculated.

[4] = molecular target: T3, hTLR8 (human Toll-like receptor 8) (Homo sapiens, UniProt Q9NR97); assay: Agonistic activity of compounds on hTLR8 (HEK-Blue hTLR8 cells, QUANTI-Blue OD650); conditions: 24 h
T3 construct: host or cells: HEK-Blue hTLR8 cells
T3 sequence (Q9NR97 27-1041): T1 sequence (Q9NR97 27-1041)
Description: as §3, §4, §5, §6, §7, §8

SMILES	pEC50 [3]	pEC50 [4]	secretion of TNFα and IFNγ by spleen cells (hTLR8)	pEC50 (human PBMCs [1])	pEC50 (human PBMCs [2])	pEC50 (human PBMCs [1]; PBMC)	pEC50 (human PBMCs [2]; PBMC)
CCCC[C@](C)(CO)Nc1nc(N)nc2cc(F)cnc12 [GS-9688]	–	–	increase in the secretion of TNFα and IFNγ	–	–	–	–
CCOCc1nc2c(N)nc3ccccc3c2n1CC(C)(C)O [R848, reference compound]	–	–	–	5.63	6.69	–	–
CCCN(CCC)C(=O)C1=Cc2ccc(-c3ccc(C(=O)N4CCCC4)cc3)cc2N=C(N)C1 [VTX-2337, reference compound]	< 4.52	7.68	–	–	–	5.99	< 5.12
CCCN(Cc1ccc(N)cc1)C(=O)C1=Cc2ccc(-c3cncc(CO)c3)cc2N=C(N)C1 [compound 10]	5.20	7.48	–	–	–	6.43	7.35
CCCN(Cc1ccc(N)cc1)C(=O)C1=Cc2ccc(-c3ccc(C(=O)N4CC[C@@H](O)C4)cc3)cc2N=C(N)C1 [compound 11]	–	–	–	–	–	6.52	6.34
CCCN(Cc1cccc(N)c1)C(=O)C1=Cc2ccc(-c3cncc(CO)c3)cc2N=C(N)C1 [compound 13]	4.84	7.22	–	–	–	–	–

Continued, in another order:

pEC50 [3]	pEC50 [4]	SMILES	secretion of TNFα and IFNγ by spleen cells (hTLR8)	pEC50 (human PBMCs [1])	pEC50 (human PBMCs [2])	pEC50 (human PBMCs [1]; PBMC)	pEC50 (human PBMCs [2]; PBMC)
5.78	6.36	CCCN(Cc1ccc(N)cc1)C(=O)C1=Cc2ccc(-c3ccc4c(c3)C(=O)OC4)cc2N=C(N)C1 [compound 12]	–	–	–	6.45	6.72
6.72	7.93	CCCCc1nc2c(N)nc3cccc(CCCCCN)c3c2s1 [compound 14]	–	–	–	6.83	7.13
6.36	7.26	CCCCc1nc2c(N)nc3cccc(CCCCN)c3c2s1 [compound 16]	–	–	–	6.93	6.35
6.72	6.76	CCCCc1nc2c(N)nc3cccc(CCCCCCN)c3c2s1 [compound 17]	–	–	–	6.88	7.30
5.97	6.58	CCOCc1nc2c(N)nc3cccc(CCCCCN)c3c2s1 [compound 18]	–	–	–	–	–
6.83	7.95	CCCCc1nc2c(N)nc3cccc(CCCCCN)c3c2o1 [compound 19]	–	–	–	–	–
7.13	8.19	CCCCc1nc2c(N)nc3cccc(CCCCN)c3c2o1 [compound 20]	–	–	–	–	–
